These results are taken from patent US7820837B2, “Condensed ring compound” (Takeda Pharmaceutical Company Limited, priority 2003, dated 2010).

T1 sequence (O14842 whole entry): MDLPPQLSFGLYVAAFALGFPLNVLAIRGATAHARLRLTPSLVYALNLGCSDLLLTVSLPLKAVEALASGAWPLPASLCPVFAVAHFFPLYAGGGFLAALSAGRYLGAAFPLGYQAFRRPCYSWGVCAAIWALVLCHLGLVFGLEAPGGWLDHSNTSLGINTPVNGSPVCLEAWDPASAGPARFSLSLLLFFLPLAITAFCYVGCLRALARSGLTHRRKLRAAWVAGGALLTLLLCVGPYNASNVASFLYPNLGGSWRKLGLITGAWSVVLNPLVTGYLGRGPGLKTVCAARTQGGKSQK

The assay addresses T1, human GPR40 (Homo sapiens, UniProt O14842).
T1 construct: expressed in transfected cells
Briefly: Determination of EC50 on human GPR40 (intracellular calcium change by FLIPR in CHO cells stably expressing human GPR40). The assay is classed as cell-based. Particulars: CHO cell line stably expressing human GPR40; changes in intracellular calcium concentration measured by FLIPR (Fluo3-AM); read-out: EC50 (Receptor Function Modulating Action on GPR40). On the procedure: Determination of EC50 of the Compound of Example on Human GPR40
For determination of EC50, CHO cell line that stably expressed human GPR40 was used. Unless otherwise indicated, the CHO cell line was cultured using α-MEM medium (Invitrogen) containing 10% fetal calf serum (Invitrogen).
The cells cultured to nearly confluent were rinsed with PBS (Invitrogen) on the previous day of the assay, peeled off with 0.05% Trypsin•EDTA solution (Invitrogen) and recovered by centrifugation. The number of the obtained cells was counted, and the cells were diluted such that 3×10^5 cells were contained per 1 mL of the medium, dispensed to a Black welled 96-well plate (coster) by 100 μL per well and cultured overnight in a CO2 incubator. Various test samples were added to the CHO cells thus prepared, and the changes in the intracellular calcium concentration were measured using FLIPR (Molecular Device). The below-mentioned pre-treatment was applied to measure changes in the intracellular calcium concentration by FLIPR.
An assay buffer for adding a fluorescence dye Fluo3-AM (DOJIN) to the cells, or for washing the cells immediately before FLIPR assay was prepared. To a solution of 1M HEPES (pH 7.4, DOJIN, 20 mL) added to HBSS (Invitrogen, 1000 mL) (hereinafter HBSS/HEPES solution) was added a solution (10 mL) obtained by dissolving probenecid (Sigma, 710 mg) in 1N NaOH (5 mL), and adding and mixing an HBSS/HEPES solution (5 mL), and the resulting solution was used as an assay buffer. Fluo3-AM (50 μg) was dissolved in dimethyl sulfoxide (Wako, 21 μL), and an equivalent amount of 20% pluronic acid (Molecular Probes) was added and mixed. The solution was added to the assay buffer (10.6 mL) supplemented with fetal calf serum (105 μL) to give a fluorescence dye solution. On the previous day of assay, the medium of the CHO cells newly inoculated to the Black welled 96-well plate was removed, the fluorescence dye solution was immediately dispensed by 100 μL per well and the cells were cultured in a CO2 incubator for 1 hr to allow intake of the fluorescence dye by the cells. The cells after the culture were washed with the above-mentioned assay buffer and set on FLIPR. The test sample was diluted with DMSO in advance, dispensed to polypropylene 96-well plate (sample plate) by 2 μL, and cryopreserved at −20° C. To the thawed sample plate was added an assay buffer containing 0.015% CHAPS (DOJIN) by 198 μL, and simultaneously set on FLIPR together with the cell plate. After the aforementioned pre-treatment, changes in the intracellular calcium concentration upon addition of various test samples were measured by FLIPR.
In general terms: A change in cytosolic calcium serves as a functional read-out for many receptors and channels.
As for `O=C(O)CC1CCCc2cc(OCc3cccc(Oc4ccccc4)c3)ccc21` (stereo not drawn) [Example 6, (6-((3-phenoxybenzyl)oxy)-1,2,3,4-tetrahydro-1-naphthalenyl)acetic acid], the EC50 is less than 0.1 µM.
For `Cc1cccc(C)c1-c1cccc(COc2ccc3c(c2)CCCC3CC(=O)O)c1` (stereo not drawn) [Example 11, {6-[(2′,6′-dimethylbiphenyl-3-yl)methoxy]-1,2,3,4-tetrahydronaphthalen-1-yl}acetic acid], the EC50 was less than 0.1 µM.
Turning to `Cc1cccc(C)c1-c1cccc(COc2ccc3c(c2)OCCC(C(=O)O)C3)c1` (stereo not drawn) [Example 13, 8-[(2′,6′-dimethylbiphenyl-3-yl)methoxy]-2,3,4,5-tetrahydro-1-benzoxepine-4-carboxylic acid], the EC50 is less than 0.1 µM.
For `O=C(O)CC1CCc2cc(OCc3cccc(Oc4ccccc4)c3)ccc21` (stereo not drawn) [Example 15, {5-[(3-phenoxybenzyl)oxy]-2,3-dihydro-1H-inden-1-yl}acetic acid], the EC50 is less than 0.1 µM.
In the case of `Cc1cccc(C)c1-c1cccc(COc2ccc3c(c2)CCC3CC(=O)O)c1` (stereo not drawn) [Example 17, {5-[(2′,6′-dimethylbiphenyl-3-yl)methoxy]-2,3-dihydro-1H-inden-1-yl}acetic acid] it was less than 0.1 µM.
Regarding `CCCN(Cc1ccc(COc2ccc3c(c2)CCCC3CC(=O)O)cc1)c1nc(-c2ccccc2)cs1` (stereo not drawn) [Example 19, {6-[(4-{[(4-phenyl-1,3-thiazol-2-yl)(propyl)amino]methyl}benzyl)oxy]-1,2,3,4-tetrahydronaphthalen-1-yl}acetic acid], the EC50 was less than 1 µM.
`CCCN(Cc1ccc(COc2ccc3c(c2)OCCC(C(=O)O)C3)cc1)c1nc(-c2ccccc2)cs1` (stereo not drawn) [Example 21, 8-[(4-{[(4-phenyl-1,3-thiazol-2-yl)(propyl)amino]methyl}benzyl)oxy]-2,3,4,5-tetrahydro-1-benzoxepine-4-carboxylic acid]: the EC50 was less than 1 µM.
Turning to `Cc1cccc(C)c1-c1cccc(COc2ccc3c(c2)CCCCC3CC(=O)O)c1` (stereo not drawn) [Example 25, {2-[(2′,6′-dimethylbiphenyl-3-yl)methoxy]-6,7,8,9-tetrahydro-5H-benzo[7]annulen-5-yl}acetic acid], the EC50 was less than 1 µM.
To `Cc1cccc(C)c1-c1cccc(COc2ccc3c(c2)OCC3CC(=O)O)c1` (stereo not drawn) [Example 33, {6-[(2′,6′-dimethylbiphenyl-3-yl)methoxy]-2,3-dihydro-1-benzofuran-3-yl}acetic acid] belongs less than 0.1 µM.
In the case of `CCCN(Cc1ccc(COc2ccc3c(c2)OCC3CC(=O)O)cc1)c1nc(-c2ccccc2)cs1` (stereo not drawn) [Example 35, {6-[(4-{[(4-phenyl-1,3-thiazol-2-yl)(propyl)amino]methyl}benzyl)oxy]-2,3-dihydro-1-benzofuran-3-yl}acetic acid] it was less than 0.1 µM; in that of `Cc1ccc2ccccc2c1-c1cccc(COc2ccc3c(c2)OCC3CC(=O)O)c1` (stereo not drawn) [Example 47, (6-{[3-(2-methyl-1-naphthyl)benzyl]oxy}-2,3-dihydro-1-benzofuran-3-yl)acetic acid], less than 0.1 µM; in that of `CCCCOCCOc1ccc(-c2cccc(COc3ccc4c(c3)OCC4CC(=O)O)c2)c(C)c1` (stereo not drawn) [Example 58, (6-{[4′-(2-butoxyethoxy)-2′-methylbiphenyl-3-yl]methoxy}-2,3-dihydro-1-benzofuran-3-yl)acetic acid], less than 0.1 µM.
To `O=C(O)CC1COc2cc(OCc3ccc(Cn4c(-c5ccccc5)cc5ccccc54)cc3)ccc21` (stereo not drawn) [Example 66, [6-({4-[(2-phenyl-1H-indol-1-yl)methyl]benzyl}oxy)-2,3-dihydro-1-benzofuran-3-yl]acetic acid] belongs less than 0.1 µM; to `Cc1cc(OCc2ccccc2)cc(C)c1-c1cccc(COc2ccc3c(c2)OCC3CC(=O)O)c1` (stereo not drawn) [Example 70, (6-{[4′-(benzyloxy)-2′,6′-dimethylbiphenyl-3-yl]methoxy}-2,3-dihydro-1-benzofuran-3-yl)acetic acid], less than 0.1 µM; to `O=C(O)CC1COc2cc(OCc3ccc(CN(CCc4ccccc4)c4nc(-c5ccccc5)cs4)cc3)ccc21` (stereo not drawn) [Example 73, calcium {6-[(4-{[(2-phenylethyl)(4-phenyl-1,3-thiazol-2-yl)amino]methyl}benzyl)oxy]-2,3-dihydro-1-benzofuran-3-yl}acetate], less than 1 µM.
`Cc1cccc(C)c1-c1cc(COc2ccc3c(c2)OCC3CC(=O)O)ccc1OCc1ccccc1` (stereo not drawn) [Example 75, (6-{[6-(benzyloxy)-2′,6′-dimethylbiphenyl-3-yl]methoxy}-2,3-dihydro-1-benzofuran-3-yl)acetic acid]: the 50% effective concentration (EC50) was less than 0.1 µM.
In the case of `O=C(O)CC1CCCc2nc(SCc3cccc(Oc4ccccc4)c3)sc21` (stereo not drawn) [Example 78, {2-[(3-phenoxybenzyl)thio]-4,5,6,7-tetrahydro-1,3-benzothiazol-7-yl}acetic acid] it was less than 0.1 µM; in that of `C/C(=C\COc1ccc2c(c1)OCC2CC(=O)O)c1ccc2c(c1)CCCC2` (stereo not drawn) [Example 125, (6-{[(2E)-3-(5,6,7,8-tetrahydro-2-naphthalenyl)-2-buten-1-yl]oxy}-2,3-dihydro-1-benzofuran-3-yl)acetic acid], less than 1 µM.

The term EC50 denotes the concentration at which the effect is half-maximal.
